# Tests used:
# Format in all cases: cell-based, human
# [1] = test system: motor neurons induced to differentiate from iPS cells derived from ALS patients (TDP-43-ALS) having a mutation in TDP-43; test: Phosphorylated TDP-43 protein inclusion formation, TDP-43-ALS motor neurons
# Source text: Therefore, on day 40 from the start of differentiation induction, each differentiation-induced motor neuron in Example I-1 was immunostained and the formation of phosphorylated TDP-43 protein inclusions was examined.
# (§1) Using the differentiation-induced motor neurons in Example I-1, drugs which cause the ALS phenotype to be restored were screened from existing drug libraries with the neurite length, ectopic localization of FUS protein, stress granule formation, LDH leakage ratio, CV-caspase 3-positive ratio, phosphorylated TDP-43 protein inclusion formation, and the like as indices.
# (§2) As a result of the screening, ropinirole was found as a promising therapeutic agent for ALS. Tables 5 and 6 show the improvement ratio (%) in the ALS phenotype due to adding ropinirole to the medium. Here, ropinirole was added to the medium on days 35 to 40 from the start of the differentiation induction of each iPS cell. Here, it is assumed that days 35 to 40 from the start of differentiation induction correspond to the early stage of the ALS disease.
# (§3) The improvement ratio (%) of the ALS phenotype was calculated by Equation (1).
# (§4) [formula] [In Equation (1), A represents a measurement value of motor neurons induced to differentiate from iPS cells derived from ALS patients in the absence of ropinirole, and B represents a measurement value of motor neurons induced to differentiate from iPS cells derived from ALS patients in the presence of ropinirole, and C represents a measurement value of motor neurons induced to differentiate from iPS cells derived from healthy subjects in the absence of ropinirole.]
# (§5) Subsequently, in the same manner as above, the efficacy in cases of administering lower concentrations of ropinirole was evaluated.
# (§6) Each drug was added to the medium at a final concentration of 10 μM.
# [2] = test system: motor neurons induced to differentiate from iPS cells derived from SALS patients; test: Stress granules, sporadic ALS model (Example III-4); details: final concentration 1 μM, days 35 to 40, measured on day 40, FIG. 13
# Source text: In the same manner as in Example I-1, iPS cells derived from sporadic ALS (may be referred to below as “SALS”) patients were differentiated into motor neurons. All the iPS cells used were derived from dermal fibroblasts. Below, each differentiated motor neuron is identified by the patient number from whom the neuron was derived.
# In the same manner as in Example II-1, iPS cells derived from sporadic ALS (SALS) patients were induced to differentiate into motor neurons, and ropinirole with a final concentration of 1 μM was added to the medium. More specifically, for the period of days 35 to 40 from the start of differentiation induction, ropinirole having a final concentration of 1 μM was added to the medium. In addition, a group for which ropinirole was not added to the medium was prepared as a control. In addition, for comparison, iPS cells derived from healthy subjects were differentiated into motor neurons in the same manner as in Example I-1. No ropinirole was added to the medium of these motor neurons. As the iPS cells derived from a healthy subject, the same cells as used in Example I-1 were used.
# Subsequently, on day 40 from the start of differentiation induction, the number of stress granules was measured for each motor neuron in the same manner as in Example I-7.
# FIG. 13 is a graph showing the measurement result of the number of stress granules. […]
# [3] = test system: motor neurons induced to differentiate from iPS cells derived from ALS patients (FUS-ALS) having a mutation in FUS; test: LDH leakage ratio, FUS-ALS motor neurons
# Description: The leakage amount of LDH into the medium is an indicator of cytotoxicity. For measurement of the LDH leakage ratio, a commercially available kit (model “LDH Cytotoxicity Detection Kit”, Takara Bio Inc.) was used.
# Here, ropinirole was added to the medium on days 35 to 40 from the start of the differentiation induction of each iPS cell. Here, it is assumed that days 35 to 40 from the start of differentiation induction correspond to the early stage of the ALS disease.
# as §3, §4, §5, §6
# [4] = test system: motor neurons induced to differentiate from iPS cells derived from ALS patients (TDP-43-ALS) having a mutation in TDP-43; test: Neurite length, TDP-43-ALS motor neurons (screening, Example I-8)
# Description: For each differentiation-induced motor neuron in Example I-1, the changes over time in the neurite length were measured. A Bio station CT (Nikon Corp.) was used to measure the neurite length over time. FIG. 1 is a graph showing measurement results of changes over time in the neurite length. The vertical axis represents neurite length (relative value), and the horizontal axis represents the number of days of culturing from the start of differentiation induction.
# as §1, §2, §3, §4, §5, §6
# [5] = final concentration 0.1 μM, added days 35 to 40
# [6] = final concentration 1 μM, added days 35 to 40
# [7] = final concentration 10 μM, added days 35 to 40
structure (smiles),measurement,setting,value
"CCCN(CCC)CCc1cccc2c1CC(=O)N2 [Ropinirole, 4-(2-di-n-propylaminoethyl)-2(3H)-indole]",TDP-43 inclusion formation improvement ratio,[1]; final concentration 0.1 nM,15.3%
same,TDP-43 inclusion formation improvement ratio,[1]; final concentration 1 nM,55.3%
same,TDP-43 inclusion formation improvement ratio,[1]; final concentration 10 nM,60.3%
same,TDP-43 inclusion formation improvement ratio,[1]; [5],56.2%
same,TDP-43 inclusion formation improvement ratio,[1]; [6],69.2%
same,TDP-43 inclusion formation improvement ratio,[1]; [7],74.2%
same,Number of stress granules,[2],significantly decreased
same,LDH leakage ratio improvement ratio,[3]; final concentration 0.1 nM,10.1%
same,LDH leakage ratio improvement ratio,[3]; final concentration 1 nM,31.1%
same,LDH leakage ratio improvement ratio,[3]; final concentration 10 nM,39.4%
same,LDH leakage ratio improvement ratio,[3]; [5],33.5%
same,LDH leakage ratio improvement ratio,[3]; [6],48.0%
same,LDH leakage ratio improvement ratio,[3]; [7],47.6%
same,Neurite length improvement ratio,[4]; final concentration 0.1 nM,12.1%
same,Neurite length improvement ratio,[4]; final concentration 1 nM,49.4%
same,Neurite length improvement ratio,[4]; final concentration 10 nM,52.3%
same,Neurite length improvement ratio,[4]; [5],50.4%
same,Neurite length improvement ratio,[4]; [6],75.3%
same,Neurite length improvement ratio,[4]; [7],77.2%

# From US12678423B2, “Therapeutic agent for amyotrophic lateral sclerosis and composition for treatment” (KEIO UNIVERSITY, priority 2016, dated 2026)
